# System: subjects with moderately to severely active RA who have an inadequate response to methotrexate (MTX)
# Test: Study 1 (add-on to MTX) - ACR responses (ACR20/50/70)
# Assay type: in vivo, human
# Text: The terms “ACR20”, “ACR50” and “ACR70” as used herein are scores which indicate how much a patient's rheumatoid arthritis has improved according to criteria set out by the American College of Rheumatology (ACR). The ACR score represents a percentage. An ACR20 score means that a person's RA has improved by 20%, an ACR50 score means it has improved by 50%, and an ACR70 score means it has improved by 70%. Specifically, to qualify for an ACR20 score, a person with RA must have at least 20% fewer tender joints and at least 20% fewer swollen joints. In addition the patient must show a 20% improvement in at least three of the following five areas: the person's overall (global) assessment of his or her own RA, the physician's global assessment of the person's RA, the person's assessment of his or her own pain, the person's assessment of his or her own physical functioning, and the results of an erythrocyte sedimentation rate or C-reactive protein (CRP) blood test (both of which test for inflammation). ACR50 and ACR70 scores use the same criteria but require 50% and 70% improvement, respectively, (Felson et al., 1993). In the data presented herein the CRP blood test is used.
# Double-blind, placebo-controlled add on study in subjects with moderately to severely active RA who have an inadequate response to methotrexate (MTX) (oral or parenteral).
# 595 subjects randomized to one of 6 dose regimens of Compound 1 (dosed as [Compound 1:HCl:3H2O]) (3 dose levels administered either once or twice daily) or placebo on top of each subject's stable dose of MTX.
# Compound 1 (dosed as [Compound 1:HCl:3H2O]) is dosed for twelve weeks once daily (q.d.) (50 mg, 100 mg or 200 mg) or twice daily (b.i.d.) (25 mg, 50 mg or 100 mg); or placebo.
# At Week 12, the subjects on placebo who have not achieved 20% improvement in swollen joint count (SJC66) and tender joint count (TJC68) are re-randomized automatically to receive Compound 1 (dosed as a [Compound 1:HCl:3H2O]) either at 100 mg q.d. or 50 mg b.i.d. doses in a blinded fashion; subjects on 50 mg q.d. who have not achieved 20% improvement in SJC66 and TJC68 will be assigned to 100 mg q.d. and subjects on 25 mg b.i.d. that have not achieved a 20% improvement in SJC66 and TJC68 will be assigned to 50 mg b.i.d. Subjects who switch treatment at week 12 are handled as if they discontinued at week 12 for the purpose of statistical analysis, whereas subjects in the other groups will maintain their randomized treatment until Week 24.
# The American College of Rheumatology (ACR) composite score, which evaluates clinical improvement relative to an initial assessment, is a commonly accepted efficacy end point for clinical trials in patients with rheumatoid arthritis. The ACR score correspond to a percentage improvement in pre-set parameters, and therefore measures the evolution of the disease in a patient. For example, ACR20 denotes at least 20% improvement in tender and swollen joint counts and in three of the following end points: global assessment by the patient, global assessment by the doctor, C reactive protein (CRP), patient's pain Visual Analogue Scale and Health Assessment Questionnaire Score. The number of swollen joints, ESR and CRP correlate with radiographic progression of joint damage, whereas tender joint counts, as well as global assessments by doctors and patients, and patients' reports of pain, are sensitive to change in clinical outcomes. Physical function, as assessed by the Health Assessment Questionnaire Score, is a potent predictor of the risk of disability in rheumatoid arthritis (Felson and American College of Rheumatology Committee to Reevaluate Improvement Criteria, 2007; Felson et al., 1993).
# In particular, the list of parameters used to assess ACR score can be found in the Table XCVI below and the results of the ACR responses at week 12 via either NRI or LOCF are shown in the tables below. The Hommel-corrected p-value for the pairwise comparisons of each group with placebo is shown. […]
# [1] = 2 × 50 mg b.i.d., week 12, 12 weeks results
# [2] = 2 × 50 mg b.i.d., week 12, 24 weeks results
# [3] = 2 × 50 mg b.i.d., week 16, 24 weeks results
# [4] = 2 × 50 mg b.i.d., week 20, 24 weeks results
# [5] = 2 × 50 mg b.i.d., week 24, 24 weeks results
# [6] = 2 × 50 mg b.i.d., at week 1, 12 weeks results
# [7] = 2 × 50 mg b.i.d., at week 1, 24 weeks results
# [8] = 2 × 100 mg b.i.d., week 2, 12 weeks results
# [9] = 2 × 100 mg b.i.d., week 2, 24 weeks results
# [10] = 2 × 100 mg b.i.d., week 4, 12 weeks results
# [11] = 2 × 100 mg b.i.d., week 4, 24 weeks results
# [12] = 2 × 100 mg b.i.d., week 8, 12 weeks results
# [13] = 2 × 100 mg b.i.d., week 8, 24 weeks results
# [14] = 2 × 100 mg b.i.d., week 12, 12 weeks results
# [15] = 2 × 100 mg b.i.d., week 12, 24 weeks results
# [16] = 2 × 100 mg b.i.d., week 16, 24 weeks results
# [17] = 2 × 100 mg b.i.d., week 20, 24 weeks results
# [18] = 2 × 100 mg b.i.d., week 24, 24 weeks results
# [19] = 2 × 100 mg b.i.d., at week 1, 12 weeks results
# [20] = 2 × 100 mg b.i.d., at week 1, 24 weeks results
smiles,measurement,setting,value
"O=C(Nc1nc2cccc(-c3ccc(CN4CCS(=O)(=O)CC4)cc3)n2n1)C1CC1 [Compound 1, cyclopropanecarboxylic acid {5-[4-(1,1-dioxo-thiomorpholin-4-ylmethyl)-phenyl]-[1,2,4]triazolo[1,5-a]pyridin-2-yl}-amide]",ACR70 (NRI),"2 × 50 mg b.i.d., week 8, 24 weeks results",14.1%
same,ACR20 (LOCF),[1],58.8%
same,ACR20 (NRI),[1],58.8%
same,ACR50 (LOCF),[1],34.1%
same,ACR50 (NRI),[1],34.1%
same,ACR70 (LOCF),[1],18.8%
same,ACR70 (NRI),[1],18.8%
same,ACR20 (LOCF),[2],60.0%
same,ACR20 (NRI),[2],58.8%
same,ACR50 (LOCF),[2],34.1%
same,ACR50 (NRI),[2],34.1%
same,ACR70 (LOCF),[2],18.8%
same,ACR70 (NRI),[2],18.8%
same,ACR20 (LOCF),[3],67.1%
same,ACR20 (NRI),[3],64.7%
same,ACR50 (LOCF),[3],32.9%
same,ACR70 (LOCF),[3],21.2%
same,ACR20 (LOCF),[4],68.2%
same,ACR20 (NRI),[4],65.9%
same,ACR50 (LOCF),[4],41.2%
same,ACR70 (LOCF),[4],22.4%
same,ACR20 (LOCF),[5],67.1%
same,ACR20 (NRI),[5],60.0%
same,ACR50 (LOCF),[5],38.8%
same,ACR70 (LOCF),[5],24.7%
same,ACR20 (LOCF),[6],22.4%
same,ACR20 (NRI),[6],22.4%
same,ACR50 (LOCF),[6],7.1%
same,ACR50 (NRI),[6],7.1%
same,ACR70 (LOCF),[6],2.4%
same,ACR70 (NRI),[6],2.4%
same,ACR20 (LOCF),[7],22.4%
same,ACR20 (NRI),[7],22.4%
same,ACR50 (LOCF),[7],7.1%
same,ACR50 (NRI),[7],7.1%
same,ACR70 (LOCF),[7],2.4%
same,ACR70 (NRI),[7],2.4%
same,ACR20 (LOCF),[8],53.6%
same,ACR20 (NRI),[8],54.8%
same,ACR50 (LOCF),[8],22.6%
same,ACR50 (NRI),[8],21.4%
same,ACR70 (LOCF),[8],4.8%
same,ACR70 (NRI),[8],3.6%
same,ACR20 (LOCF),[9],56.0%
same,ACR20 (NRI),[9],54.8%
same,ACR50 (LOCF),[9],22.6%
same,ACR50 (NRI),[9],21.4%
same,ACR70 (LOCF),[9],4.8%
same,ACR70 (NRI),[9],3.6%
same,ACR20 (LOCF),[10],67.9%
same,ACR20 (NRI),[10],69.0%
same,ACR50 (LOCF),[10],34.5%
same,ACR50 (NRI),[10],35.7%
same,ACR70 (LOCF),[10],9.5%
same,ACR70 (NRI),[10],10.7%
same,ACR20 (LOCF),[11],67.9%
same,ACR20 (NRI),[11],67.9%
same,ACR50 (LOCF),[11],34.5%
same,ACR50 (NRI),[11],34.5%
same,ACR70 (LOCF),[11],10.7%
same,ACR70 (NRI),[11],10.7%
same,ACR20 (LOCF),[12],75.0%
same,ACR20 (NRI),[12],75.0%
same,ACR50 (LOCF),[12],45.2%
same,ACR50 (NRI),[12],45.2%
same,ACR70 (LOCF),[12],26.2%
same,ACR70 (NRI),[12],27.4%
same,ACR20 (LOCF),[13],75.0%
same,ACR20 (NRI),[13],75.0%
same,ACR50 (LOCF),[13],45.2%
same,ACR50 (NRI),[13],45.2%
same,ACR70 (LOCF),[13],27.4%
same,ACR70 (NRI),[13],27.4%
same,ACR20 (LOCF),[14],79.8%
same,ACR20 (NRI),[14],79.8%
same,ACR50 (LOCF),[14],56.0%
same,ACR50 (NRI),[14],54.8%
same,ACR70 (LOCF),[14],29.8%
same,ACR70 (NRI),[14],31.0%
same,ACR20 (LOCF),[15],81.0%
same,ACR20 (NRI),[15],79.8)
same,ACR50 (LOCF),[15],57.1%
same,ACR50 (NRI),[15],54.8%
same,ACR70 (LOCF),[15],31.0%
same,ACR70 (NRI),[15],31.0%
same,ACR20 (LOCF),[16],84.5%
same,ACR20 (NRI),[16],82.1%
same,ACR50 (LOCF),[16],64.3%
same,ACR70 (LOCF),[16],36.9%
same,ACR20 (LOCF),[17],88.1%
same,ACR20 (NRI),[17],84.5%
same,ACR50 (LOCF),[17],61.9%
same,ACR70 (LOCF),[17],36.9%
same,ACR20 (LOCF),[18],86.9%
same,ACR20 (NRI),[18],79.8%
same,ACR50 (LOCF),[18],61.9%
same,ACR70 (LOCF),[18],42.9%
same,ACR20 (LOCF),[19],33.3%
same,ACR20 (NRI),[19],34.5%
same,ACR50 (LOCF),[19],7.1%
same,ACR50 (NRI),[19],7.1%
same,ACR70 (LOCF),[19],4.8%
same,ACR70 (NRI),[19],4.8%
same,ACR20 (LOCF),[20],34.5%
same,ACR20 (NRI),[20],34.5%
same,ACR50 (LOCF),[20],7.1%
same,ACR50 (NRI),[20],7.1%
same,ACR70 (LOCF),[20],4.8%
same,ACR70 (NRI),[20],4.8%

# — patent US20180200257A1, “METHODS FOR THE TREATMENT OF INFLAMMATORY DISORDERS” (Galapagos NV, priority 2015, published 2018)
